System: human maximum recommended daily dose, FDA database
Test: DSSTox (FDAMDD) FDA Maximum (Recommended) Daily Dose Database
Settings: hits give low values
Outline: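 MRDD values come from clinical trials with daily oral dosing, usually for 3–12 months, for the average adult, in mg/day converted to mg/kg-bw/day assuming 60 kg. Antineoplastic mg/m2 doses are divided by 37. Activity score maps log10(1/MRDD mmol) onto 1–100.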

[1] = TherapeuticCategory: narcotic analgesic
[2] = TherapeuticCategory: antihypertensive, antianginal
[3] = TherapeuticCategory: antihistaminic
[4] = TherapeuticCategory: anticonvulsant
[5] = TherapeuticCategory: skeletal muscle relaxant
[6] = TherapeuticCategory: antibacterial

CC1(C)O[C@@H]2[C@@H](CO[C@@]3(COS(N)(=O)=O)OC(C)(C)O[C@@H]23)O1
maximum recommended daily dose (mmol/kg-bw/day) (TherapeuticCategory: antiepileptic): 0.0197

CCOC(=O)CCCCCCCCC(C)c1ccc(I)cc1 (stereo unspecified)
maximum recommended daily dose (mmol/kg-bw/day) (TherapeuticCategory: diagnostic aid): 0.3

Oc1c(I)cc(I)c2cccnc12
maximum recommended daily dose (mmol/kg-bw/day) (TherapeuticCategory: antiamebic): 0.0756

CCOC(=O)C1(c2ccccc2)CCN(C)CC1
maximum recommended daily dose (mmol/kg-bw/day) [1]: 0.0606

CCOC(=O)C1=C(C)NC(C)=C(C(=O)OC)C1c1cccc(Cl)c1Cl (stereo unspecified)
maximum recommended daily dose (mmol/kg-bw/day) [2]: 0.000867

COC(=O)C1=C(C)NC(C)=C(C(=O)OC(C)C)C1c1cccc2nonc12 (stereo unspecified)
maximum recommended daily dose (mmol/kg-bw/day) [2]: 0.00045

CN(C)CCN(Cc1ccccc1)c1ccccn1
maximum recommended daily dose (mmol/kg-bw/day) [3]: 0.0392

Nc1nnc(-c2cccc(Cl)c2Cl)c(N)n1
maximum recommended daily dose (mmol/kg-bw/day) [4]: 0.026

CCCCNC(=O)NS(=O)(=O)c1ccc(C)cc1
maximum recommended daily dose (mmol/kg-bw/day) (TherapeuticCategory: hypoglycemic agent): 0.123

CC(=O)OC1C([N+]2(C)CCCCC2)C[C@H]2[C@@H]3CC[C@H]4C[C@H](OC(C)=O)C(N5CCCCC5)C[C@]4(C)[C@H]3CC[C@]12C (stereo partly specified)
maximum recommended daily dose (mmol/kg-bw/day) [5]: 0.000157

CN[C@@H]1CCc2[nH]c3ccc(C(N)=O)cc3c2C1
maximum recommended daily dose (mmol/kg-bw/day) (TherapeuticCategory: antimigraine): 0.000514

NC(=O)OCC(COC(N)=O)c1ccccc1
maximum recommended daily dose (mmol/kg-bw/day) [4]: 0.252

CC(=O)[C@@]1(O)CC[C@H]2[C@@H]3C=C(Cl)C4=CC(=O)[C@@H]5C[C@@H]5[C@]4(C)[C@H]3CC[C@@]21C
maximum recommended daily dose (mmol/kg-bw/day) (TherapeuticCategory: antiandrogen): 0.0133

CC(C)=CCC1C(=O)N(c2ccccc2)N(c2ccccc2)C1=O
maximum recommended daily dose (mmol/kg-bw/day) (TherapeuticCategory: anti inflammatory): 0.039

COc1cc2nc(N3CCN(C(=O)C4COc5ccccc5O4)CC3)nc(N)c2cc1OC (stereo unspecified)
maximum recommended daily dose (mmol/kg-bw/day) (TherapeuticCategory: antihypertensive): 0.000591

O=C1NC(=O)C(c2ccccc2)(c2ccccc2)N1
maximum recommended daily dose (mmol/kg-bw/day) (TherapeuticCategory: anticonvulsant, antiepileptic): 0.0198

CO[C@H]1[C@@H](O)C[C@H](O[C@H]2[C@@H](O)C[C@H](O[C@H]3[C@@H](O)C[C@H](O[C@H]4CC[C@@]5(C)[C@H](CC[C@@H]6[C@@H]5C[C@@H](O)[C@]5(C)[C@@H](C7=CC(=O)OC7)CC[C@]65O)C4)O[C@@H]3C)O[C@@H]2C)O[C@@H]1C
maximum recommended daily dose (mmol/kg-bw/day) (TherapeuticCategory: cardiotonic): 8.39e-06

CCN(CC)C(=O)N[C@H]1C=C2c3cccc4[nH]cc(c34)C[C@H]2N(C)C1
maximum recommended daily dose (mmol/kg-bw/day) (TherapeuticCategory: antimigraine, prolactin inhibitor): 0.000246

CN(C)C(=O)CCCOC(=O)C(C)(C)Oc1ccc(Cl)cc1
maximum recommended daily dose (mmol/kg-bw/day) (TherapeuticCategory: antihyperlipoproteinemic): 0.137

CCN1CCCC1CNC(=O)c1cc(S(=O)(=O)CC)ccc1OC (stereo unspecified)
maximum recommended daily dose (mmol/kg-bw/day) (TherapeuticCategory: antidepressant): 0.0564

CCCCC[C@H](O)/C=C/[C@H]1[C@H](O)CC(=O)[C@@H]1C/C=C\CCCC(=O)O
maximum recommended daily dose (mmol/kg-bw/day) (TherapeuticCategory: oxytocic, abortifacient): 7.09e-05

c1ccc(CN(CC2=NCCN2)c2ccccc2)cc1
maximum recommended daily dose (mmol/kg-bw/day) [3]: 0.0188

CC1=C(/C=C/C(C)=C/C=C/C(C)=C\C(=O)O)C(C)(C)CCC1
maximum recommended daily dose (mmol/kg-bw/day) (TherapeuticCategory: keratolytic): 0.00666

NC[C@@H]1O[C@H](O[C@H]2[C@@H](O)[C@H](O[C@@H]3[C@@H](O)[C@H](N)C[C@H](N)[C@H]3O[C@H]3O[C@H](CN)[C@@H](O)[C@H](O)[C@H]3N)O[C@@H]2CO)[C@H](N)[C@@H](O)[C@@H]1O
maximum recommended daily dose (mmol/kg-bw/day) [6]: 0.163

c1ccc(CC2=NCCN2)cc1
maximum recommended daily dose (mmol/kg-bw/day) (TherapeuticCategory: antiadrenergic): 0.0125

C[N+](C)(C)CCCCCCCCCC[N+](C)(C)C
maximum recommended daily dose (mmol/kg-bw/day) [5]: 9.97e-05

C[C@]12C=CC(=O)C=C1CC[C@@H]1[C@@H]2CC[C@@]2(C)[C@H]1CC[C@]2(C)O
maximum recommended daily dose (mmol/kg-bw/day) (TherapeuticCategory: androgen): 0.000222

Cc1cc(C)nc(NS(=O)(=O)c2ccc(N)cc2)n1
maximum recommended daily dose (mmol/kg-bw/day) [6]: 0.18

COc1cc(Cc2cnc(N)nc2N)cc(OC)c1OC
maximum recommended daily dose (mmol/kg-bw/day) [6]: 0.0184

CC1C2Cc3ccc(O)cc3C1(C)CCN2CC1CC1 (stereo unspecified)
maximum recommended daily dose (mmol/kg-bw/day) (TherapeuticCategory: narcotic antagonist): 0.000246

O=c1cc[nH]c(=S)[nH]1
maximum recommended daily dose (mmol/kg-bw/day) (TherapeuticCategory: thyroid depressant): 0.026

COc1cc(N)c(Cl)cc1C(=O)NC1CCN(CCCOc2ccc(F)cc2)CC1OC (stereo unspecified)
maximum recommended daily dose (mmol/kg-bw/day) (TherapeuticCategory: peristaltic stimulant): 0.00285

Cc1nc(N/C(N)=N/S(=O)(=O)c2ccc(N)cc2)oc1C
maximum recommended daily dose (mmol/kg-bw/day) [6]: 0.129

COc1ccc2c3c1O[C@H]1C(=O)CC[C@@]4(O)[C@@H](C2)N(C)CC[C@]314
maximum recommended daily dose (mmol/kg-bw/day) [1]: 0.0169

Cc1ccc(/C(=C/CN2CCCC2)c2ccccn2)cc1
maximum recommended daily dose (mmol/kg-bw/day) [3]: 0.0006

COC(=O)C1=C(C)NC(C)=C(C(=O)OCC(C)C)C1c1ccccc1[N+](=O)[O-] (stereo unspecified)
maximum recommended daily dose (mmol/kg-bw/day) [2]: 0.00172

— PubChem BioAssay AID1195 (EPA DSSTox, 2008)
